The results in this text go back to PMC11472313, “Development of Fragment-Based Inhibitors of the Bacterial Deacetylase LpxC with Low Nanomolar Activity” (Journal of Medicinal Chemistry, 2024).

In brackets after ≈: the same amount, converted by molar mass.

Data set [1] can be described thus: plasma protein binding, human. In kind it is in vitro ADME. As for the experimental part: (§1) The microsomal metabolic stability assay as well as the plasma protein binding assay were conducted as described previously.[78]
Data set [2] is described as follows: metabolic stability in mouse liver S9 fractions. As to conditions: pooled liver S9 fraction, 1 μM compound, 1 mg/mL S9, phase I and II cofactors; for half-life at 1 μM: read-out: metabolic stability in mouse liver S9 fractions t1/2. In kind it is in vitro ADME. As for the experimental part: For the evaluation of combined phase I and phase II metabolic stability, the compound (1 μM) was incubated with 1 mg/mL pooled mouse liver S9 fraction (Xenotech, Kansas City, USA), 2 mM nicotinamide adenine dinucleotide phosphate hydrogen (NADPH), 1 mM UDPGA, 10 mM MgCl2, 5 mM glutathione (GSH), and 0.1 mM 3′-phosphoadenosine 5′-phosphosulfate (PAPS) at 37 °C for 120 min. The metabolic stability of testosterone, verapamil, and ketoconazole were determined in parallel to confirm the enzymatic activity of mouse S9 fractions. The incubation was stopped after defined time points by precipitation of aliquots of S9 enzymes with 2 volumes of cold acetonitrile containing internal standard (150 nM diphenhydramine). Samples were stored on ice until the end of the incubation and the precipitated protein was removed by centrifugation (15 min, 4 °C, 4000g). Concentration of the remaining test compound at the different time points was analyzed by HPLC–MS/MS (TSQ Quantum Access Max, Thermo Fisher, Dreieich, Germany) and used to determine half-life (t1/2).

Data set [3] in a line: kinetic turbidimetric solubility. The format is physicochemical. As to conditions: PBS with 1% DMSO, Kinetic solubility (1% DMSO/PBS). Here is the method: The desired compounds were sequentially diluted in DMSO in a 96-well plate. 1.5 μL from each well was transferred into another 96-well plate and mixed with 148.5 μL of PBS. Plates were shaken for 5 min at 600 rpm at room temperature, and the absorbance at 620 nm was measured. Absorbance values were normalized by blank subtraction and plotted using GraphPad Prism 8.4.2 (GraphPad Software, San Diego, CA, USA). Solubility (S) was determined based on the First X value of AUC function using a threshold of 0.005.

The nature of data set [4]: stability in mouse plasma. As to conditions: 1 μM compound, pooled CD-1 mouse plasma; for half-life at 1 μM: CD-1, mouse, pooled plasma, read-out: mouse plasma stability t1/2. The format is in vitro ADME. Here is the method: To determine stability in mouse plasma, the compound (1 μM) was incubated with pooled CD-1 mouse plasma (Neo Biotech, Nanterre, France). Samples were taken at defined time points by mixing aliquots with 4 volumes of acetonitrile containing internal standard (125 nM diphenhydramine). Samples were stored on ice until the end of the incubation, and the precipitated protein was removed by centrifugation (15 min, 4 °C, 4000g, 2 centrifugation steps). Concentration of the remaining test compound at the different time points was analyzed by HPLC–MS/MS (TSQ Quantum Access MAX, Thermo Fisher, Dreieich, Germany). The plasma stability of procain, propantheline, and diltiazem were determined in parallel to confirm enzymatic activity.

A short description of data set [5]: log D7.4, HPLC-based method. In kind it is physicochemical. As to conditions: pH 7.4, HPLC-based; read-out: logD7.4. As for the experimental part: Log D7.4 was analyzed using an HPLC-based method. The UV retention time of reference compounds with known log D7.4 was determined and plotted toward their log D7.4. Linear regression was used to determine the log D7.4 of unknown compounds. Analysis was performed using a Vanquish Flex HPLC system with a variable wavelength detector (Thermo Fisher, Dreieich, Germany) with the following conditions: EC150/2 NUCLEODUR C18 Pyramid column, […] (Macherey Nagel, Düren, Germany); eluent A: 50 mM NH4OAc pH 7.4, eluent B: acetonitrile, and flow: 0.6 mL/min; gradient elution: (B %): 0–2.5 min: gradient from 0 to 100%, 2.5–3.0 min: 100%, 3.0–3.2 min: gradient from 100 to 0%, 3.2–5.0 min: 0%.

Data set [6] can be described thus: plasma protein binding, mouse. Particulars: for fraction unbound: plasma. In kind it is in vitro ADME. Here is the method: as §1
The next data set concerns the target T1, MMP2 (Homo sapiens, UniProt P08253).
T1 construct: purchased AnaSpec (Fremont, CA, USA)
T1 sequence (P08253 110-660): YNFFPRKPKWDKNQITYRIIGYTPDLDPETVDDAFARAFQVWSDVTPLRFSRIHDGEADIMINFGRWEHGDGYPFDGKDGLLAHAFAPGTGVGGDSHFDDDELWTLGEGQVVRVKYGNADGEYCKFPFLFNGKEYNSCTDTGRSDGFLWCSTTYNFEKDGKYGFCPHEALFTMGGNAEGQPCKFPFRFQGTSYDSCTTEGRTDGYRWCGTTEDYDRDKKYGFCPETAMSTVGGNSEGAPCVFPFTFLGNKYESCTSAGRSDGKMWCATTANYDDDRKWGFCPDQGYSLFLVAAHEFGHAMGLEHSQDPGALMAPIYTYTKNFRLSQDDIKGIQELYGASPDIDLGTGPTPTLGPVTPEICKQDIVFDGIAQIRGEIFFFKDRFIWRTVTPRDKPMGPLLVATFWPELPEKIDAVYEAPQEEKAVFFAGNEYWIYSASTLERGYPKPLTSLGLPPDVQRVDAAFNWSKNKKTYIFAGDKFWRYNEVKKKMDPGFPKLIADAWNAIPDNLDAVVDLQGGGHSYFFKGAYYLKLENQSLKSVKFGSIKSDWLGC
Nature of the data set: MMP2 inhibition (SensoLyte 520 Generic MMP Activity Kit). Particulars: for inhibition at 100 µM: read-out: MMP2 (% inhibition at 100 μM), 100 μM. In kind it is biochemical. Here is the method:
Since LpxC and LasB are zinc-dependent enzymes, we investigated potential off-target activity of the three frontrunners on mammalian zinc-dependent enzymes. Our panel comprised three representative matrix-metalloproteases (MMP1–3) and tumor necrosis factor-α converting enzyme (TACE, also known as ADAM17) (Table 6).
Purification of LasB from P. aeruginosa PA14 supernatant and the subsequent performance of the FRET-based in vitro inhibition assay was performed as described previously.[66] The TACE (ADAM-17) inhibitor screening kit was purchased from Sigma-Aldrich (Saint Louis, MO). MMPs 1–3 along with the SensoLyte 520 Generic MMP Activity Kit Fluorimetric were purchased from AnaSpec (Fremont, CA, USA). The assays were performed according to the guidelines of the respective manufacturer. Fluorescence signals were measured using a CLARIOstar plate reader (BMG Labtech, Ortenberg, Germany).

The nature of data set [7]: microsomal metabolic stability, human. The format is in vitro ADME. As to conditions: human liver microsomes; for half-life: read-out: microsomal metabolic stability t1/2. Here is the method:
Also, the plasma stability of the compounds in mouse plasma was generally low with half-lives between 22.9 min [(S)-13h] and 43.1 min [(S)-13j].
as §1
Samples were analyzed using an Agilent 1290 Infinity II HPLC system coupled to an AB Sciex QTrap 6500plus mass spectrometer. LC conditions were as follows: column: Agilent Zorbax Eclipse Plus C18, 50 × 2.1 mm, 1.8 μm; temperature: 30 °C; injection volume: 5 μL per sample; flow rate: 700 μL min^–1. Samples were run under acidic conditions. Solvents: (A) water + 0.1% formic acid; (B) 95% acetonitrile/5% H2O + 0.1% formic acid. Gradient elution: (A %): 0–0.1 min: 99%, 0.1–3.5 min: gradient from 99 to 50%, 3.5–3.8 min: gradient from 50 to 0%, 3.8–4.7 min: gradient from 0 to 99%. Mass transitions for controls and compounds are depicted in Table S3.

As for `O=C(NC[C@H](OCc1ccc(C#Cc2ccc(CN3CCOCC3)cc2)cc1)C(=O)NO)c1c[nH]c2ccccc12` [(S)-13h], the fraction unbound in data set [1] was 0.0175; in data set [6], 0.0541. In addition, in data set [2], the microsomal CLint at 1 μM was roughly 45 µL/min/mg. The figures for the half-life at 1 μM in data set [2] and in data set [4] were 15.5 ± 1 min and 22.9 ± 4.8 min, respectively. The same molecule displayed a kinetic solubility at 5 min in data set [3] of 53.5 ± 1.9 µM (≈ 29.6 µg/mL). Further, the chromatographic logD in data set [5] turned out to be 3.63. At MMP2, the inhibition at 100 µM worked out at 15 ± 3%. Besides, the intrinsic clearance (microsomal CLint) in data set [7] was less than 23 µL/min/mg. For the same molecule, in data set [7], the half-life was greater than 60 min.
In data set [1], `O=C(NC[C@H](OCc1ccc(C#Cc2ccc(CN3CCOCC3)cc2)cc1)C(=O)NO)c1ccc2[nH]ccc2c1` [(S)-13j] showed a fraction unbound of 0.0205. In data set [2], the microsomal CLint at 1 μM was determined as 27.6 ± 2.7 µL/min/mg and the half-life at 1 μM was 25.5 ± 2.7 min. For the same molecule, the solubility (kinetic) at 5 min in data set [3] stood at 46 ± 11 µM (≈ 25.4 µg/mL). Moreover, in data set [4], the “mouse plasma stability t1/2” value was found to be 43 ± 13 min and the half-life at 1 μM was determined as 43.1 min. For the same molecule, the chromatographic logD in data set [5] stood at 3.33. In addition, the fraction unbound in data set [6] is 0.0795. Moreover, the “MMP2 (% inhibition at 100 μM)” value at MMP2 (100 μM) was found to be 47 ± 3%. For the same molecule, on MMP2, the inhibition at 100 µM was roughly 50%. Also, in data set [7], the microsomal CLint was less than 23 µL/min/mg and the half-life is greater than 60 min.
Molecule `O=C(NC[C@H](OCc1ccc(C#Cc2ccc(CN3CCOCC3)cc2)cc1)C(=O)NO)c1cc[nH]n1` [(S)-13l] gave a fraction unbound in data set [1] of 0.0224. Also, in data set [2], the microsomal CLint at 1 μM amounted to 10.9 ± 0.9 µL/min/mg and the half-life at 1 μM is greater than 60 min. This molecule also displayed a solubility (kinetic) at 5 min in data set [3] of no less than 100 µM. Further, the half-life at 1 μM in data set [4] was found to be 24.2 ± 5 min. The chromatographic logD in data set [5] came to 2.43. In addition, in data set [6], the “plasma protein binding mouse” value came out at 79.42 ± 2.5% and the fraction unbound is greater than 0.2. Also, on MMP2, the midpoint of inhibition, the IC50, lay at 67 µM and the inhibition at 100 µM is 65 ± 4%. Besides, at MMP2 (MMP2 versus LpxC), the “selectivity factor for MMP2” value is given as 105. In data set [7], the microsomal CLint was less than 23 µL/min/mg and the half-life is greater than 60 min.
